One experiment addresses CSF-1R kinase (Homo sapiens (Human), UniProt P07333). In words: CSF-1R kinase assay (AlphaScreen). Format: biochemical. On the procedure: Inhibition of CSF-1R kinase activity by a test compound disclosed herein was estimated by AlphaScreen (PerkinElmer). […] Reactions were incubated at 30° C. for 45 min and stopped by adding 5 μL of 50 mM EDTA. Analysis of resulting product using an AlphaScreen kit, and counted with Enspire Alpha (PerkinElmer). […] The IC50 values of quinoxaline compounds of this invention against CSF-1R kinase were determined using the GraphPad Prism 5 software.

In a further experiment the target is c-KIT kinase (Homo sapiens (Human), UniProt P10721). In words: c-KIT kinase assay (radiometric). The experiment is classed as biochemical. As for the experimental part: (§1) Inhibition of c-KIT kinase activity by a test compound disclosed herein was estimated by radiometric assay. Standard assay conditions were 20 ng of recombinant c-Kit (SignalChem) with 2 μg of substrate Poly-(Glu 4:Tyr 1) (sigma) in the assay buffer in kinase reaction buffer (10 mM MOPS pH 7.0, 0.21 mM EDTA, 0.5% glycerol, 0.001% Brij-35, 0.01 2-mercaptoehtanol, 1 mg/ml BSA, 10 mM MgCl2, 10 mM MnCl2, 10 μM ATP, 0.1 μCi per well [^33P]-ATP, in the presence of test compound (diluted in final concentration of 4% DMSO) or DMSO control, with a final volume of 25 μl for 60 minutes at 30° C. The reaction was stopped by adding 5 μl of 3% phosphoric acid solution. Total reaction solution was then harvested onto a filter plate (UniFilter-96 GF/B, PerkinElmer), and washed 20 times for 5 min with dH2O. 30 μl of MicroScint™-20 Cocktail (PerkinElmer) was added to dried plate. The plate was sealed and counted using a TopCount scintillation detector (PerkinElmer). […] The IC50 values of quinoxaline compounds of this invention against c-KIT kinase were determined using the GraphPad Prism 5 software.
Chain of c-KIT kinase (P10721 26-976): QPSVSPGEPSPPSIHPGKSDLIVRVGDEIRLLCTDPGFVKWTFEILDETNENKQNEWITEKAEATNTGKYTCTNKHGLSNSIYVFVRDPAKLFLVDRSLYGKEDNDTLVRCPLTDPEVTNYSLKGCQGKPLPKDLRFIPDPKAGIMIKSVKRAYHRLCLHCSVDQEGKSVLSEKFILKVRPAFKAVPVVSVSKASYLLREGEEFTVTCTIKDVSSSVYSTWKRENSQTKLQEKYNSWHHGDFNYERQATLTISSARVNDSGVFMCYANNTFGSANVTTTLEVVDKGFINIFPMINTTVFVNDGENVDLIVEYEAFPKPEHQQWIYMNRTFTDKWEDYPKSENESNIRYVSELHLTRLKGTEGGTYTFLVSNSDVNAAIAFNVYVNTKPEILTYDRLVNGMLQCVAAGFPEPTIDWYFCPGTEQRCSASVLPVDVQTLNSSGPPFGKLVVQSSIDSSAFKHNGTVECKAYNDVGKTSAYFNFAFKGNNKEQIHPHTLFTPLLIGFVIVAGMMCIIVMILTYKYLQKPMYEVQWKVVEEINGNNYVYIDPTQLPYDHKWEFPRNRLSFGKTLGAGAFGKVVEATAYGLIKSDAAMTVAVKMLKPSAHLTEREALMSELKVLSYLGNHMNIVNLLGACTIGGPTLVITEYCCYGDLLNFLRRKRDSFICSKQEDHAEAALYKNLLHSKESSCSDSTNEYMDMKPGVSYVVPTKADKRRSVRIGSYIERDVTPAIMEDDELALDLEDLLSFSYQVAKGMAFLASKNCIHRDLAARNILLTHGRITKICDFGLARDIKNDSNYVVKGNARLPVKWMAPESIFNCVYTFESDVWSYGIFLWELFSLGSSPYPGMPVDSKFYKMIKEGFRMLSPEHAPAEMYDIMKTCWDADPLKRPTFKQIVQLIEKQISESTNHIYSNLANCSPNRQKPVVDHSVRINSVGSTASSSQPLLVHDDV
(§2) The IC50 values for selected quinoxaline compounds of this invention against CSF-1R, c-KIT, FLT3, and PDGFRβ are summarized in Table 3.

In the next experiment the target is FLT3 kinase (Homo sapiens (Human), UniProt P36888). Nature of the experiment: FLT3 kinase assay (radiometric). Format: biochemical. As for the experimental part:
as §1, with “of FLT3” for “of c-KIT”, “were 5” for “were 20”, “recombinant FLT3 (Thermo Fisher)” for “recombinant c-Kit (SignalChem)”, “BSA, MgCl2” for “BSA,”, “10 mM,” for “10 mM MgCl2, 10 mM MnCl2,”, “against FLT3” for “against c-KIT”
as §2

Another experiment concerns the target PDGFRβ kinase (Homo sapiens (Human), UniProt P09619). Nature of the experiment: PDGFRβ kinase assay (radiometric). Format: biochemical. The conditions noted are these: bound. As for the experimental part: as §1, with “of PDGFRβ” for “of c-KIT”, “were 10” for “were 20”, “recombinant PDGFRβ” for “recombinant c-Kit”, “well [^33P]-ATP),” for “well [^33P]-ATP,”, “against PDGFRβ” for “against c-KIT”
as §2

For experiment [1], the system named is CSF-1-dependent M-NFS-60 mouse myeloid leukemia cell. In words: M-NFS-60 cell proliferation assay (CellTiter-96). Format: cell-based. The conditions noted are these: Cytotoxicity, M-NFS-60 cells, 72 hours. On the procedure:
(§3) Inhibition of cell growth by compounds was measured using CellTiter™-96 assay. The cytotoxicity of compounds was evaluated in CSF-1-dependent M-NFS-60 mouse myeloid leukemia cell, FLT3 signal addicted MV4-11 human acute myeloid leukemia cell with FLT3-ITD mutation, c-KIT signal addicted Kasumi-1 human acute myeloid leukemia cell with c-KIT N822K activating mutation, and THP-1 human acute monocytic leukemia cell harboring NRAS G12D mutation.
The compounds disclosed herein were tested in M-NFS-60 cell proliferation assay to determine their cellular potency against CSF-1R. […] Inhibition of CSF-1R kinase activity will cause reduced growth and/or cell death. […] Cells were allowed to expand until reaching saturation at which point they were subcultured or harvested for assay use.
(§4) M-NFS-60, Kasumi-1, MV4-11 and THP-1 cells were seeded into 96-well plates at 2000, 64000, 6500, and 5000 cells/well, respectively, and incubated at 37° C., 5% CO2 overnight. Then, these seeded cells were treated with increasing concentrations of the test compounds and incubated for another 72 hours. At the end of the incubation, CellTiter96® AQueous One Solution Reagent (Promega) was added and incubated for 4 hours. Cell viability was determined by measuring absorbance at 490 nm using EMax® microplate reader (Molecular Devices).

For experiment [2], the system named is MV4-11 human acute myeloid leukemia cell with FLT3-ITD mutation. In words: MV4-11 cell proliferation assay (CellTiter-96). The experiment is classed as cell-based. The settings on record: Cytotoxicity, MV4-11 cells, 72 hours. As for the experimental part:
as §3
The compounds disclosed herein were tested in MV4-11 cell proliferation assay to determine their cellular potency against FLT3 kinase. MV4-11 human acute myeloid leukemia cells harbor ligand-independent FLT3-ITD activating mutation, which render its proliferation FLT3-ITD dependent. Inhibition of FLT3 kinase activity will cause reduced growth and/or cell death. […] Cells were allowed to expand until reaching saturation at which point they were subcultured or harvested for assay use.
as §4

For experiment [3], the system named is Kasumi-1 human acute myeloid leukemia cell with c-KIT N822K activating mutation. Nature of the experiment: Kasumi-1 cell proliferation assay (CellTiter-96). Format: cell-based. The conditions noted are these: Cytotoxicity, Kasumi-1 cells, 72 hours. On the procedure:
as §3
The compounds disclosed herein were tested in Kasumi cell proliferation assay to determine their cellular potency against c-KIT kinase. Kasumi human acute myeloid leukemia cells harbor ligand-independent N822K c-KIT activating mutation, thus the cell proliferation relied on c-KIT signal. Inhibition of c-KIT kinase activity will cause reduced growth and/or cell death. […] Cells were allowed to expand until reaching saturation at which point they were subcultured or harvested for assay use.
as §4

For experiment [4], the system named is THP-1 human acute monocytic leukemia cell harboring NRAS G12D mutation. Nature of the experiment: THP-1 cell proliferation assay (counter screen, CellTiter-96). The settings on record: Cytotoxicity, THP-1 cells (counter screen), 72 hours. Format: cell-based. As for the experimental part:
as §3
THP-1 human acute monocytic leukemia cells harbor NRAS G12D mutation, which renders cell proliferate independently of class III RTKs signal. […] Cells were allowed to expand until reaching saturation at which point they were subcultured or harvested for assay use.
as §4
(In general: A counterscreen serves to expose hits that act by an unwanted route or on another target.)

The results in this text go back to US10689362B2, “Quinoxaline compounds as type III receptor tyrosine kinase inhibitors” (Development Center for Biotechnology, priority 2016, dated 2020).

Chain of CSF-1R kinase (P07333 20-972): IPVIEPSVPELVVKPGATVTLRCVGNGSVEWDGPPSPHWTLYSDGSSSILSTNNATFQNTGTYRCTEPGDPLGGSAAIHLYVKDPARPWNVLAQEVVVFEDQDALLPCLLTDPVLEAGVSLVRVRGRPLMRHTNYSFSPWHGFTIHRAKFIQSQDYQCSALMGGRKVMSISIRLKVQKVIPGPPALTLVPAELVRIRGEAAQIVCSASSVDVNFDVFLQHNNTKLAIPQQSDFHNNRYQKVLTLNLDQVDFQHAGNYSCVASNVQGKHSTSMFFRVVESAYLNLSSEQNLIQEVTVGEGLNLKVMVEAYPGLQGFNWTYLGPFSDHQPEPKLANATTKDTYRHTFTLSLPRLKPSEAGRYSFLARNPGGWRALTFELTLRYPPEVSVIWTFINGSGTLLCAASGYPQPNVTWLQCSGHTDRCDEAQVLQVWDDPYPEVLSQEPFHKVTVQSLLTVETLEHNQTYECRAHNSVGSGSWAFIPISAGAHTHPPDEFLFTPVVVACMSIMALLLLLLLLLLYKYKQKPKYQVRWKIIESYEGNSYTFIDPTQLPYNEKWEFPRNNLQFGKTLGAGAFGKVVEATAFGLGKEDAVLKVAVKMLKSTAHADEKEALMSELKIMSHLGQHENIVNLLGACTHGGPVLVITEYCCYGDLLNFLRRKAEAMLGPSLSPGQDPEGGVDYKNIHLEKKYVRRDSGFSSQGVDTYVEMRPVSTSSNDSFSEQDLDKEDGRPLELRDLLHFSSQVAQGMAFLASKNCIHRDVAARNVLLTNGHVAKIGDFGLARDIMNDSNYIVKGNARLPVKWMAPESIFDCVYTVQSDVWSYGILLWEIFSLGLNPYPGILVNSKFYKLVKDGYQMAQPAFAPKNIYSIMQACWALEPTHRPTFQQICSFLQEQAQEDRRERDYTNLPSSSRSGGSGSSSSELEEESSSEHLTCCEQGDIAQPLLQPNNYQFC
Chain of FLT3 kinase (P36888 27-993): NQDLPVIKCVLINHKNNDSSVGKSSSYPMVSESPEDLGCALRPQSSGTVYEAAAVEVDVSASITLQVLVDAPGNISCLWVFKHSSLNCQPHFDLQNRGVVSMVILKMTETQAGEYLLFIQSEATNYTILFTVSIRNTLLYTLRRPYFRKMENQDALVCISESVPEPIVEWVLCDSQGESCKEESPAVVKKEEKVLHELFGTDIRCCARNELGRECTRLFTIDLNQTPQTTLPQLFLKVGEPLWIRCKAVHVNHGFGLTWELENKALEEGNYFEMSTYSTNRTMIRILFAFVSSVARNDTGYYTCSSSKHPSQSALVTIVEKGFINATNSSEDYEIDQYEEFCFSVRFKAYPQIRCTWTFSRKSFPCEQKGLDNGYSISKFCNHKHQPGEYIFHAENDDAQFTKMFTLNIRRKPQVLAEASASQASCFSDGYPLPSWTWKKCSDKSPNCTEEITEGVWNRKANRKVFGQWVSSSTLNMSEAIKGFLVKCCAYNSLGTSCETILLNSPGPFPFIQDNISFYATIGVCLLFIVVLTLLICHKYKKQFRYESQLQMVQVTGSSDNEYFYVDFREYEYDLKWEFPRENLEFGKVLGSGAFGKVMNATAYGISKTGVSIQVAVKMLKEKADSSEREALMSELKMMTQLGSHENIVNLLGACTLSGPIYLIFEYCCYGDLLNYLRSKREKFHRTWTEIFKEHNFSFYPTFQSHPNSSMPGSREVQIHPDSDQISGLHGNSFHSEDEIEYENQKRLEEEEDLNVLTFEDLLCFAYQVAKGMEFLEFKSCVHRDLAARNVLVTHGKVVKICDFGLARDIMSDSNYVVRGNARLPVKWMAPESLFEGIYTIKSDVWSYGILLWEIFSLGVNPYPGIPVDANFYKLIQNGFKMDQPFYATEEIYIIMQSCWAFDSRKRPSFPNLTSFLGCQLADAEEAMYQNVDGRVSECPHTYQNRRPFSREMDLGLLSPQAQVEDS
Chain of PDGFRβ kinase (P09619 33-1106): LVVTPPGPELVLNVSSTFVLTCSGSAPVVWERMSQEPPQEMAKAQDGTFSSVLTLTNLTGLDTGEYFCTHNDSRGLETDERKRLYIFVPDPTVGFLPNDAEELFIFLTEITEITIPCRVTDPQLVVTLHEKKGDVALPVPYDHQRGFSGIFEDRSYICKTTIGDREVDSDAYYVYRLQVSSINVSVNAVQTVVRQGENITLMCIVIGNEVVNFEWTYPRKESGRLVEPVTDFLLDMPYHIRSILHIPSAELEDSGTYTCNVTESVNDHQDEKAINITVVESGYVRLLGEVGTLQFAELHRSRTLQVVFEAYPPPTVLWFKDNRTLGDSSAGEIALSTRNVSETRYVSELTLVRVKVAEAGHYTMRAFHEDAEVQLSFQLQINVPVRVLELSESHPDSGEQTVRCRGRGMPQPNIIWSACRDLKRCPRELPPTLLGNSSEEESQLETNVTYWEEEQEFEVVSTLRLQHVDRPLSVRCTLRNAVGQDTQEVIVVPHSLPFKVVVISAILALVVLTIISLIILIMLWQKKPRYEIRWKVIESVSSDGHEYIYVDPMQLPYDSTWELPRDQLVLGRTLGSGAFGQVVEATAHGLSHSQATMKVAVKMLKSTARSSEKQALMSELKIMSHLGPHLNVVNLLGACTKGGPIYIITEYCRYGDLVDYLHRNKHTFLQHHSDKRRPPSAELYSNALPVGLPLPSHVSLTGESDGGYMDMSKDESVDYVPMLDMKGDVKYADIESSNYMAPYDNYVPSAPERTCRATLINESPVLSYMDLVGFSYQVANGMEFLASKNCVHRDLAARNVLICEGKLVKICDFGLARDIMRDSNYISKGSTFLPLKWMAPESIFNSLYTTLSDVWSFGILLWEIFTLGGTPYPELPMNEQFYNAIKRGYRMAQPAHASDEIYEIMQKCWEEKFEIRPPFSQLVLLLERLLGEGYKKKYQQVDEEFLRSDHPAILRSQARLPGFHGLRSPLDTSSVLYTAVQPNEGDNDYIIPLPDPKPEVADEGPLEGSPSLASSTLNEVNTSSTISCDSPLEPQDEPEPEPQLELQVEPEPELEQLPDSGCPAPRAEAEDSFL

Broadly, the IC50 is the concentration at which inhibition is half-maximal. The low end stands for greater potency, the high end for weaker potency. Regarding `COc1ccc(COc2ccc(Nc3ccc4ncc(OCCN(C)C)nc4c3C#N)cc2OC)cc1` [Example 13, 3-(2-(dimethylamino)ethoxy)-6-((3-methoxy-4-((4-methoxybenzyl)oxy)phenyl)amino)quinoxaline-5-carbonitrile], the concentration for half-maximal inhibition (IC50) on CSF-1R kinase (class symbol) was 100 to 300 nM; on c-KIT kinase (class symbol) it was 300 to 1000 nM; on FLT3 kinase (bound), more than 1000 nM; on PDGFRβ kinase, more than 1000 nM; in experiment [1], 1000 to 10000 nM; in experiment [2], 1000 to 10000 nM. Besides, the IC50 in experiment [3] and in experiment [4] was 1000 to 10000 nM each time.
Consider `C#CCOc1ccc(Nc2ccc3ncc(N4CCOCC4)nc3c2C#N)cc1OC` [Example 92, 6-((3-methoxy-4-(prop-2-yn-1-yloxy)phenyl)amino)-3-morpholinoquinoxaline-5-carbonitrile], for which the IC50 against CSF-1R kinase (class symbol) was 300 to 1000 nM; against c-KIT kinase (class symbol), 100 to 300 nM; against FLT3 kinase (bound) it was more than 1000 nM; against PDGFRβ kinase it was more than 1000 nM; in experiment [1], 1000 to 10000 nM; in experiment [2] it was 1000 to 10000 nM. In addition, the IC50 is 300 to 1000 nM in experiment [3] and more than 10000 nM in experiment [4].
Consider `COc1cc(Nc2ccc3ncc(N4CCOCC4)nc3c2C#N)ccc1OCc1ccco1` [Example 122, 6-((4-(furan-2-ylmethoxy)-3-methoxyphenyl)amino)-3-morpholinoquinoxaline-5-carbonitrile], for which the 50% inhibitory concentration (IC50) at CSF-1R kinase (class symbol) is 100 to 300 nM; at c-KIT kinase (class symbol) it was less than 100 nM; against FLT3 kinase (bound), more than 1000 nM; against PDGFRβ kinase, more than 1000 nM; in experiment [1] it was 1000 to 10000 nM; in experiment [2], 1000 to 10000 nM. In addition, the half-inhibitory concentration (IC50) in experiment [3] is 300 to 1000 nM; in experiment [4], more than 10000 nM.
With `COc1cc(Nc2ccc3ncc(N4CCOCC4)nc3c2C#N)ccc1OCC1CC1` [Example 36, 6-((4-(cyclopropylmethoxy)-3-methoxyphenyl)amino)-3-morpholinoquinoxaline-5-carbonitrile], the concentration for half-maximal inhibition (IC50) against CSF-1R kinase (class symbol) was 300 to 1000 nM; on c-KIT kinase (class symbol), 100 to 300 nM; at FLT3 kinase (bound) it was more than 1000 nM; against PDGFRβ kinase it was more than 1000 nM; in experiment [1], more than 10000 nM; in experiment [2], 1000 to 10000 nM. Moreover, the figures for the IC50 in experiment [3] and in experiment [4] were 300 to 1000 nM and more than 10000 nM, respectively.
`COc1cc(Nc2ccc3ncc(N4CCOCC4)nc3c2C#N)ccc1OCc1cc(C)on1` [Example 61, 6-((3-methoxy-4-((5-methylisoxazol-3-yl)methoxy)phenyl)amino)-3-morpholinoquinoxaline-5-carbonitrile]: the IC50 is less than 100 nM at CSF-1R kinase (class symbol); less than 100 nM at c-KIT kinase (class symbol); more than 1000 nM against FLT3 kinase (bound); more than 1000 nM on PDGFRβ kinase; more than 10000 nM in experiment [1]; more than 10000 nM in experiment [2]. Further, the half-inhibitory concentration (IC50) is 300 to 1000 nM in experiment [3] and more than 10000 nM in experiment [4].
With `COc1cc(Nc2ccc3ncc(N4CCOCC4)nc3c2C#N)ccc1OCc1ccncc1` [Example 46, 6-((3-methoxy-4-(pyridin-4-ylmethoxy)phenyl)amino)-3-morpholinoquinoxaline-5-carbonitrile], the IC50 against CSF-1R kinase (class symbol) was 300 to 1000 nM; against c-KIT kinase (class symbol) it was 100 to 300 nM; at FLT3 kinase (bound), more than 1000 nM; at PDGFRβ kinase it was more than 1000 nM; in experiment [1], 1000 to 10000 nM; in experiment [2] it was 1000 to 10000 nM. Also, the values for the IC50 in experiment [3] and in experiment [4] were 1000 to 10000 nM and more than 10000 nM, respectively.
Take `COc1ccc(COc2ccc(Nc3ccc4ncc(OC(C)C)nc4c3C#N)cc2OC)cn1` [Example 119, 3-isopropoxy-6-((3-methoxy-4-((6-methoxypyridin-3-yl)methoxy)phenyl)amino)quinoxaline-5-carbonitrile]: the half-inhibitory concentration (IC50) against CSF-1R kinase (class symbol) was 100 to 300 nM; at c-KIT kinase (bound) it was more than 1000 nM; against FLT3 kinase (class symbol), 100 to 300 nM; against PDGFRβ kinase, more than 1000 nM; in experiment [1] it was 1000 to 10000 nM; in experiment [2], 1000 to 10000 nM. In addition, the 50% inhibitory concentration (IC50) in experiment [3] and in experiment [4] was more than 10000 nM each time.
As for `COc1cnc2ccc(Nc3ccc(NCc4ccc(C(F)(F)F)cc4)nc3)c(C#N)c2n1` [Example 4, 3-methoxy-6-((6-((4-(trifluoromethyl)benzyl)amino)pyridin-3-yl)amino)quinoxaline-5-carbonitrile], the concentration for half-maximal inhibition (IC50) against CSF-1R kinase (bound) was more than 1000 nM; against c-KIT kinase (class symbol), 300 to 1000 nM; against FLT3 kinase (bound), more than 1000 nM; on PDGFRβ kinase, more than 1000 nM; in experiment [1], more than 10000 nM; in experiment [2], 1000 to 10000 nM. The concentration for half-maximal inhibition (IC50) was 1000 to 10000 nM in experiment [3] and more than 10000 nM in experiment [4].
For the compound `COc1cc(Nc2ccc3ncc(N4CCOCC4)nc3c2C#N)ccc1OCc1nccn1C` [Example 48, 6-((3-methoxy-4-((1-methyl-1H-imidazol-2-yl)methoxy)phenyl)amino)-3-morpholinoquinoxaline-5-carbonitrile], the half-inhibitory concentration (IC50) is more than 1000 nM against CSF-1R kinase (bound); 300 to 1000 nM on c-KIT kinase (class symbol); more than 1000 nM at FLT3 kinase (bound); more than 1000 nM on PDGFRβ kinase; more than 10000 nM in experiment [1]; more than 10000 nM in experiment [2]. Also, the IC50 in experiment [3] was 1000 to 10000 nM; in experiment [4] it was more than 10000 nM.
